From patent US11279733B2, “Peptide antibiotics” (priority 2017, dated 2022)
Values after ≈ are worked out from the molar mass of the structure shown. Where two headings read alike, the source gives them in different places. Positions of bridges follow the written chain, without caps; N, C: chain ends. Non-standard residues stand in square brackets, D forms with d. Residues, ends and D or L forms follow the SMILES beside them. *: point of attachment. Decanoyl(3R-OH) = CCCCCCC[C@@H](O)CC(=O)*; Octanoyl(3-OH) = CCCCCC(O)CC(=O)*; X13 = CCCCCCCCCC(O)CC(=O)*; dDab = NCC[C@@H](N)C(=O)O; Dab = NCC[C@H](N)C(=O)O

Columns and labels:
A. baumannii ATCC 19606 = conditions: ATCC 19606
Procedure, shortened: (§1)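 Mid-log cultures grown in Mueller Hinton broth at 37° C were tested by 2-fold broth microdilution at 5×10^5 CFU/mL final. Compounds were dissolved in water and tested over a final range of 32 to 0.015 μg/mL.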

A. baumannii GN_093 PmxR = conditions: GN 093 PmxR
Procedure, shortened: as §1

E. coli ATCC 25922 = conditions: ATCC 25922
Procedure, shortened: as §1

K. pneumoniae ATCC 13883 = conditions: ATCC 13883
Procedure, shortened: as §1

[1] = tested on: K. pneumoniae ATCC 700603, MDR; conditions: ATCC 700603
Procedure, shortened: as §1

[2] = tested on: K. pneumoniae ATCC BAA-2146, NDM-1 pos; conditions: ATCC BAA-2146
Procedure, shortened: as §1

[3] = tested on: K. pneumoniae GN_102 PmxR; conditions: GN 102 PmxR
Procedure, shortened: as §1

[4] = tested on: K. pneumoniae GN_106, PmxR; conditions: GN 106, PmxR
Procedure, shortened: as §1

P. aeruginosa ATCC 27853 = conditions: ATCC 27853
Procedure, shortened: as §1

[5] = tested on: P. aeruginosa GN_043, PmxR
Procedure, shortened: as §1

[6] = tested on: P. aeruginosa GN_105, PmxR; conditions: GN 105, PmxR
Procedure, shortened: as §1

[7] = tested on: S. aureus ATCC 25923, MSSA; conditions: ATCC 25923
Procedure, shortened: as §1

in vitro = conditions: human
Description: Cytotoxicity of the synthesised peptides was evaluated by comparison with commercially available colistin (polymyxin E), polymyxin B (Sigma chemical Co., St. Louis, Mo., U.S.A.) and synthetic octapeptin C4 by conducting lactate dehydrogenase (LDH) assay. CC50 values calculated based on curve fitting of dose dependent inhibition of cell growth represented the cytotoxicity of the peptide. Human kidney 2 (HK2) cells were seeded as 2000 cells per well in a 384 well cell culture plate in a final volume of 20 μL in DMEM/F12 medium (Invitrogen #11330057), in which 10% of FBS was added. Cells were incubated for 24 hours at 37° C., 5% CO2 to allow cells to attach to the plates. Similar conditions were employed for HEK293 and HepG2 cytotoxicity assays.
Colistin and polymyxin B were tested from a range of 2 mM to 0.9 μM. 120 μL of the 1 mM stock solutions in water of each synthesised peptide were freeze-dried and processed for LDH assay. After freeze-dry procedure, the compounds were reconstituted into 600 μM solutions using culture media. All tested compounds were diluted from 600 μM to 0.27 μM in 3-fold dilutions. Then 20 μL of each dilution was added into 20 uL of culture medium in quadruplicate to reach the final concentrations. The cells were incubated with the compounds for 24 h at 37° C., 5% CO2. After the incubation, 5 μL of culture medium was added to 50 μL of LDH assay buffer and incubated for 1 h at room temperature. The absorbance was read at 450 nm using Polarstar. The data was then analysed by Prism software. […] Nephrotoxicity Assessment in Human Proximal Tubule Cells.

Row | Compound | CC50 at 24 h (in vitro) [µM] | MIC A. baumannii ATCC 19606 (A. baumannii ATCC 19606) [µg/mL] | MIC E. coli ATCC 25922 (E. coli ATCC 25922) [µg/mL] | MIC K. pneumoniae ATCC 13883 (K. pneumoniae ATCC 13883) [µg/mL] | MIC K. pneumoniae ATCC 700603, MDR [1] [µg/mL] | MIC K. pneumoniae ATCC BAA-2146, NDM-1 pos [2] [µg/mL] | MIC P. aeruginosa ATCC 27853 (P. aeruginosa ATCC 27853) [µg/mL] | MIC P. aeruginosa GN_043, PmxR ([5]; polymyxin-resistant) [µg/mL] | MIC P. aeruginosa GN_105, PmxR [6] [µg/mL] | MIC P. aeruginosa GN_043, PmxR [5] [µg/mL] | MIC S. aureus ATCC 25923, MSSA [7] [µg/mL] | further results
1 | CCCCCCC[C@@H](O)CC(=O)N[C@H](CCN)C(=O)N[C@H]1CCNC(=O)[C@H](CC(C)C)NC(=O)[C@H](CCN)NC(=O)[C@H](C)NC(=O)[C@H](CC(C)C)NC(=O)[C@@H](Cc2ccccc2)NC(=O)[C@H](CCN)NC1=O [compound 4945, 3(R)OH-nC9CO-D-Dab-cyc[L-Dab-L-Dab-D-Phe-L-Leu-L-Ala-L-Dab-L-Leu]] ({Decanoyl(3R-OH)}-[dDab][Dab][Dab][dF]LA[Dab]L; lactam 2-C) | 181 | – | – | – | – | – | – | – | – | – | – | MIC, A. baumannii ATCC 19606 (A. baumannii ATCC 19606): 16 µg/mL (≈ 15.8 µM); MIC, A. baumannii Cl Ptyela 10073 4512:2, PmxR (A. baumannii GN_093 PmxR): 32 µg/mL (≈ 31.5 µM); MIC, E. coli ATCC 25922 (E. coli ATCC 25922): 16 µg/mL (≈ 15.8 µM); MIC, K. pneumoniae ATCC 13883 (K. pneumoniae ATCC 13883): 16 µg/mL (≈ 15.8 µM); MIC, K. pneumoniae ATCC 700603, MDR [1]: 8 µg/mL (≈ 7.88 µM); MIC, K. pneumoniae ATCC BAA-2146, NDM-1 pos [2]: 8 µg/mL (≈ 7.88 µM); MIC, K. pneumoniae Cl Koprana 10065 0661:1, PmxR [3]: 4 µg/mL (≈ 3.94 µM); MIC, K. pneumoniae Cl 138-16347-20362, PmxR [4]: 16 µg/mL (≈ 15.8 µM); MIC, P. aeruginosa ATCC 27853 (P. aeruginosa ATCC 27853): 4 µg/mL (≈ 3.94 µM); MIC, P. aeruginosa FADDI-PA070, PmxR ([5]; Table 5, polymyxin-resistant): 4 µg/mL (≈ 3.94 µM); MIC, P. aeruginosa PA9704, PmxR [6]: 8 µg/mL (≈ 7.88 µM); MIC, S. Aureus ATCC 25923, MSSA [7]: 32 µg/mL (≈ 31.5 µM)
2 | CCCCCCC[C@@H](O)CC(=O)N[C@H](CCN)C(=O)N[C@H]1CCNC(=O)[C@H](Cc2ccccc2)NC(=O)[C@H](CCN)NC(=O)[C@H](CCN)NC(=O)[C@H](CC(C)C)NC(=O)[C@@H](Cc2ccccc2)NC(=O)[C@H](CCN)NC1=O [compound 5004, 3(R)OH-nC9CO-D-Dab-cyc[L-Dab-L-Dab-D-Phe-L-Leu-L-Dab-L-Dab-L-Phe]] ({Decanoyl(3R-OH)}-[dDab][Dab][Dab][dF]L[Dab][Dab]F; lactam 2-C) | 23 | 4 (≈ 3.71 µM) | 8 (≈ 7.42 µM) | 4 (≈ 3.71 µM) | 8 (≈ 7.42 µM) | 4 (≈ 3.71 µM) | 4 (≈ 3.71 µM) | 2 (≈ 1.85 µM) | 8 (≈ 7.42 µM) | – | – | –
3 | CCCCCCC[C@@H](O)CC(=O)N[C@H](CCN)C(=O)N[C@H]1CCNC(=O)[C@H](Cc2ccccc2)NC(=O)[C@H](CCN)NC(=O)[C@H](CCN)NC(=O)[C@H](Cc2ccccc2)NC(=O)[C@@H](Cc2ccccc2)NC(=O)[C@H](CCN)NC1=O [compound 5005, 3(R)OH-nC9CO-D-Dab-cyc[L-Dab-L-Dab-D-Phe-L-Phe-L-Dab-L-Dab-L-Phe]] ({Decanoyl(3R-OH)}-[dDab][Dab][Dab][dF]F[Dab][Dab]F; lactam 2-C) | 54 | >32 | 8 (≈ 7.19 µM) | 4 (≈ 3.6 µM) | 8 (≈ 7.19 µM) | 8 (≈ 7.19 µM) | 2 (≈ 1.8 µM) | 2 (≈ 1.8 µM) | – | – | – | –
4 | CCCCCC(O)CC(=O)N[C@H](CCN)C(=O)N[C@H]1CCNC(=O)[C@H](CC(C)C)NC(=O)[C@H](CCN)NC(=O)[C@H](CCN)NC(=O)[C@H](CC(C)C)NC(=O)[C@@H](Cc2ccccc2)NC(=O)[C@H](CCN)NC1=O (stereo partly drawn) [compound 5012, 3OH-nC7CO-D-Dab-cyc[L-Dab-L-Dab-D-Phe-L-Leu-L-Dab-L-Dab-L-Leu]] ({Octanoyl(3-OH)}-[dDab][Dab][Dab][dF]L[Dab][Dab]L; lactam 2-C) | 130 | >32 | 32 (≈ 31.5 µM) | 8 (≈ 7.87 µM) | 16 (≈ 15.7 µM) | 32 (≈ 31.5 µM) | 4 (≈ 3.94 µM) | – | 4 (≈ 3.94 µM) | 4 (≈ 3.94 µM) | >32 | MIC A. baumannii GN_093 PmxR (A. baumannii GN_093 PmxR): >32 µg/mL; MIC K. pneumoniae GN_106, PmxR [4]: >32 µg/mL
5 | CCCCCCCCCC(O)CC(=O)N[C@H](CCN)C(=O)N[C@H]1CCNC(=O)[C@H](CC(C)C)NC(=O)[C@H](CCN)NC(=O)[C@H](CCN)NC(=O)[C@H](CC(C)C)NC(=O)[C@@H](Cc2ccccc2)NC(=O)[C@H](CCN)NC1=O (stereo partly drawn) [compound 5014, 3OH-nC11CO-D-Dab-cyc[L-Dab-L-Dab-D-Phe-L-Leu-L-Dab-L-Dab-L-Leu]] (X13-[dDab][Dab][Dab][dF]L[Dab][Dab]L; lactam 2-C) | 19 | 8 (≈ 7.46 µM) | 2 (≈ 1.86 µM) | 4 (≈ 3.73 µM) | 8 (≈ 7.46 µM) | 16 (≈ 14.9 µM) | 4 (≈ 3.73 µM) | – | 32 (≈ 29.8 µM) | 4 (≈ 3.73 µM) | 4 (≈ 3.73 µM) | –
